Laboratory results: patent publication US12304890B2, “R-type pyridyloxycarboxylic acid, salt and ester derivative thereof, and preparation method therefor, and herbicidal composition and application thereof” (Qingdao Kingagroot Chemical Compound Co., Ltd., priority 2018, dated 2025)

Columns and labels:
Assay type in all cases: in vivo
[1] = tested on: Monocotyledonous and dicotyledonous weed seeds and main crop seeds; test: Post-emergence test experiment, other weeds and crops (Table 4, 1000 g a.i./ha); settings: 3 weeks in greenhouse, fresh weight inhibition
How it was run: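 Growth inhibition is scored on fresh weight. Spray solutions were made in acetone with tween-80, diluted in water, plus 1.5 L/ha methyl oleate emulsible concentrate. Plants from greenhouse-grown weed and crop seeds were treated post-emergence at 2-3 leaves, 2 weeks after sowing.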

rice = test: Post-emergence test experiment, rice (crop selectivity); settings: 200 g a.i./ha, 3 weeks
How it was run: (§1)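 Test compounds dissolve in acetone, receive tween-80 and a methyl oleate emulsible concentrate synergist (1.5 liters per hectare), then are diluted in water and sprayed onto 2-3 leaf stage plants. After 3 weeks of greenhouse culture, fresh weight inhibition is determined.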

[2] = tested on: Semen Euphorbiae Lathyridis; test: Post-emergence test experiment, Semen Euphorbiae Lathyridis; settings: 200 g a.i./ha, 3 weeks, weed resistant to cyhalofop-butyl
How it was run: as §1

rice (japonica rice) = test: Transplanted rice safety evaluation; settings: transplanted 3-leaf japonica rice, 1000 g a.i./ha, 21 days after treatment
Protocol: In addition, the rice field soil that loaded into the 1/1,000,000 ha pot was leveled to keep water storage at 3-4 cm depth. The 3-leaf stage rice (japonica rice) was transplanted at 3 cm of transplanting depth the next day. The compound of the present invention was treated by the same way after 5 days of transplantation.
(§2) The fertility condition of Monochoria vaginalis 14 days and rice 21 days after the treatment of the compound of the invention with the naked eye.

Digitaria sanguinalis = test: Post-emergence test experiment, Digitaria sanguinalis
How it was run: as §1

Monochoria vaginalis = test: Weed control effect evaluation in rice field; settings: paddy pot, 0.5 leaf stage, 1000 g a.i./ha, 14 days; weed resistant to pyrazosulfuron-ethyl and penoxsulam
Protocol: Rice field soil was loaded into a 1/1,000,000 ha pot. The seeds of Monochoria vaginalis were sowed and gently covered with soil, then left to stand still in greenhouse in the state of 0.5-1 cm of water storage. It was kept at 3-4 cm of water storage thereafter. The weeds were treated by dripping the WP or SC water diluents prepared according to the common preparation method of the compounds of the present invention with pipette homogeneously to achieve specified effective amount when Monochoria vaginalis reached 0.5 leaf stage.
as §2

Echinochloa crusgalli = test: Post-emergence test experiment, Echinochloa crusgalli
How it was run: as §1

[3] = 1000 g a.i./ha, 3 weeks in greenhouse, fresh weight inhibition

## C[C@@H](Oc1nc(F)c(Cl)c(N)c1Cl)C(=O)OCc1ccco1 [Compound 2-348]
[1]; Abutilon theophrasti Medic.
  Activity level (growth inhibition rate), Abutilon theophrasti Medic.: 5 (Level 5: the growth inhibition rate is greater than 85%)
[1]; Galium aparine
  Activity level (growth inhibition rate), Galium aparine: 5 (Level 5: the growth inhibition rate is greater than 85%)
[1]; Monochoria Vaginalis
  Activity level (growth inhibition rate), Monochoria Vaginalis: 5 (Level 5: the growth inhibition rate is greater than 85%)
rice
  rice, activity level (growth inhibition rate): 0 (Level 0: the growth inhibition rate is less than 5%)
[2]
  Semen Euphorbiae Lathyridis, activity level (growth inhibition rate): 5 (Level 5: the growth inhibition rate is greater than 85%)
Rice (japonica rice)
  rice, safety level 0-5: 0 (Level 0: the growth inhibition rate is less than 5%)
Digitaria sanguinalis; 200 g a.i./ha, 3 weeks, weed resistant to cyhalofop-butyl
  Digitaria sanguinalis, activity level (growth inhibition rate): 5 (Level 5: the growth inhibition rate is greater than 85%)
Digitaria sanguinalis; [3]
  Activity level (growth inhibition rate), Digitaria sanguinalis: 5 (Level 5: the growth inhibition rate is greater than 85%)
Monochoria vaginalis
  Monochoria Vaginalis, activity level 0-5: 5 (Level 5: the growth inhibition rate is greater than 85%)
Echinochloa crusgalli; 200 g a.i./ha, 3 weeks, weed resistant to ALS inhibitor and ACCe herbicides
  Echinochloa crusgalli, activity level (growth inhibition rate): 5 (Level 5: the growth inhibition rate is greater than 85%)
Echinochloa crusgalli; [3]
  Activity level (growth inhibition rate), Echinochloa crusgalli: 5 (Level 5: the growth inhibition rate is greater than 85%)
